From patent US20240350447A1, “DELIVERY METHODS FOR TREATING BRAIN AND CENTRAL NERVOUS SYSTEM DISEASES” (JENIVISION INC., priority 2021, published 2024)
Like-named read-outs stand apart in the source and are kept apart here.

Test: Biodistribution of DHA after periorbital skin (NIODP) application to one eye
Type: in vivo, Cynomolgus monkeys
Conditions: for DHA in cornea / DHA in upper eyelid / DHA in vitreous humor / Retina/Upper eyelid ratio of DHA / concentration at 0.5 h / concentration at 3 h / concentration at 6 h / concentration at 24 h / concentration at 0 h / OD/OS retina ratio of DHA: 6755.1 μg to OS via NIODP; for concentration at 0.5 h / concentration at 3 h / concentration at 6 h / concentration at 24 h / concentration at 0 h / Kp: cynomolgus monkey; for OD/OS retina ratio of DHA: undosed/dosed retina
Procedure: An experiment was performed to determine the biodisposition of DHA following topical application to the periorbital skin that surrounds the anterior portion of the globe was performed.
Docosahexaenoic acid (DHA) is an omega-3 fatty acid and an essential component for neuronal formation, function and protection. […] […] High concentrations of DHA (from 35.6 to 97.3 μg/g) were detected in the undoes retina, which is similar to the dosed retina.
Moreover, compared to the baseline retina/plasma ratio of 7-fold, and with no significant changes in plasma, the retina/plasma ratios of DHA in the undosed eye were at least 30-fold at each post dose timepoint, signifying that the undosed retina uptake of DHA was not from blood circulation.

[1] = OD (undosed eye), 0 h (baseline)

CC/C=C\C/C=C\C/C=C\C/C=C\C/C=C\C/C=C\CCC(=O)O [DHA, docosahexaenoic acid]
DHA in the undosed right cornea and vitreous humor (DHA to OS via NIODP): No DHA was detectable | DHA in cornea [1]: BLQ | DHA in upper eyelid [1]: BLQ | DHA in vitreous humor [1]: BLQ | Retina/Upper eyelid ratio of DHA (OD (undosed eye), 0.5 h): 172% | Retina/Upper eyelid ratio of DHA (OD (undosed eye), 3 h): 1678% | Retina/Upper eyelid ratio of DHA (OD (undosed eye), 6 h): 1057% | Retina/Upper eyelid ratio of DHA (OD (undosed eye), 24 h): 672% | DHA in cornea (OS (dosed eye), 0 h (baseline)): BLQ | DHA in upper eyelid (OS (dosed eye), 0 h (baseline)): BLQ | DHA in vitreous humor (OS (dosed eye), 0 h (baseline)): BLQ | Retina/Upper eyelid ratio of DHA (OS (dosed eye), 0.5 h): 29% | Retina/Upper eyelid ratio of DHA (OS (dosed eye), 3 h): 16% | Retina/Upper eyelid ratio of DHA (OS (dosed eye), 6 h): 735% | Retina/Upper eyelid ratio of DHA (OS (dosed eye), 24 h): 292% | concentration at 0.5 h (cornea of the undosed right eye (OD), topical, OD (undosed eye), 0.5 h, read-out: DHA in cornea): 0 ng/g | concentration at 3 h (cornea of the undosed right eye (OD), topical, OD (undosed eye), 3 h, read-out: DHA in cornea): 0 ng/g | concentration at 6 h (cornea of the undosed right eye (OD), topical, OD (undosed eye), 6 h, read-out: DHA in cornea): 0 ng/g | concentration at 24 h (cornea of the undosed right eye (OD), topical, OD (undosed eye), 24 h, read-out: DHA in cornea): 0 ng/g | concentration at 0 h (plasma, topical, 0 h (baseline), read-out: DHA in plasma): 2400 ng/mL | concentration at 0.5 h (plasma, topical, 0.5 h post dose, read-out: DHA in plasma): 2200 ng/mL | concentration at 3 h (plasma, topical, 3 h post dose, read-out: DHA in plasma): 3100 ng/mL | concentration at 6 h (plasma, topical, 6 h post dose, read-out: DHA in plasma): 2100 ng/mL | concentration at 24 h (plasma, topical, 24 h post dose, read-out: DHA in plasma): 1200 ng/mL | Kp (retina / plasma, baseline (before dosing), read-out: Baseline retina/plasma ratio of DHA): 7 | concentration at 0 h (retina of the dosed left eye (OS), topical, OS (dosed eye), 0 h (baseline), read-out: DHA in retina): 16500 ng/g | Kp (retina of the undosed eye / plasma, topical, 6775.1 μg/eye, each post dose timepoint, DHA to OS via NIODP, read-out: Retina/plasma ratio of DHA in the undosed eye): ≥ 30 | concentration at 0 h (retina of the undosed right eye (OD), topical, OD (undosed eye), 0 h (baseline), read-out: DHA in retina): 16500 ng/g | concentration at 0.5 h (retina of the undosed right eye (OD), topical, OD (undosed eye), 0.5 h, read-out: DHA in retina): 70800 ng/g | concentration at 3 h (retina of the undosed right eye (OD), topical, OD (undosed eye), 3 h, read-out: DHA in retina): 97300 ng/g | concentration at 6 h (retina of the undosed right eye (OD), topical, OD (undosed eye), 6 h, read-out: DHA in retina): 78200 ng/g | concentration at 24 h (retina of the undosed right eye (OD), topical, OD (undosed eye), 24 h, read-out: DHA in retina): 35600 ng/g | concentration at 0.5 h (upper eyelid of the undosed right eye (OD), topical, OD (undosed eye), 0.5 h, read-out: DHA in upper eyelid): 41100 ng/g | concentration at 3 h (upper eyelid of the undosed right eye (OD), topical, OD (undosed eye), 3 h, read-out: DHA in upper eyelid): 5800 ng/g | concentration at 6 h (upper eyelid of the undosed right eye (OD), topical, OD (undosed eye), 6 h, read-out: DHA in upper eyelid): 7400 ng/g | concentration at 24 h (upper eyelid of the undosed right eye (OD), topical, OD (undosed eye), 24 h, read-out: DHA in upper eyelid): 5300 ng/g | concentration at 0.5 h (vitreous humor of the dosed left eye (OS), topical, OS (dosed eye), 0.5 h, read-out: DHA in vitreous humor): 0 ng/mL | concentration at 3 h (vitreous humor of the dosed left eye (OS), topical, OS (dosed eye), 3 h, read-out: DHA in vitreous humor): 0 ng/mL | concentration at 6 h (vitreous humor of the dosed left eye (OS), topical, OS (dosed eye), 6 h, read-out: DHA in vitreous humor): 0 ng/mL | concentration at 24 h (vitreous humor of the dosed left eye (OS), topical, OS (dosed eye), 24 h, read-out: DHA in vitreous humor): 0 ng/mL | concentration at 0.5 h (vitreous humor of the undosed right eye (OD), topical, OD (undosed eye), 0.5 h, read-out: DHA in vitreous humor): 0 ng/mL | concentration at 3 h (vitreous humor of the undosed right eye (OD), topical, OD (undosed eye), 3 h, read-out: DHA in vitreous humor): 0 ng/mL | concentration at 6 h (vitreous humor of the undosed right eye (OD), topical, OD (undosed eye), 6 h, read-out: DHA in vitreous humor): 0 ng/mL | concentration at 24 h (vitreous humor of the undosed right eye (OD), topical, OD (undosed eye), 24 h, read-out: DHA in vitreous humor): 0 ng/mL | OD/OS retina ratio of DHA (0 h (baseline)): 100% | OD/OS retina ratio of DHA (0.5 h): 64% | OD/OS retina ratio of DHA (3 h): 146%
